From patent US10508310B2, “Method of predicting a response to an anti-tumor treatment” (SORBONNE UNIVERSITE, priority 2013, dated 2019)

Assays:
Type in all cases: in vivo, mice
BC227 breast cancer PDX = experiment: Tumor growth rate in BC227 patient-derived xenograft treated by DPT-C9h
Procedure: (§1) Breast-cancer patient xenografts (PDXs) were obtained by direct implant of patient tumor fragments in immunocompromised mice. (Arrouss Et al, PlosOne. 2013. 8, e60816).
(§2) Nine models treated by DPT-C9h (5 mg/kg/d IP, 5 days weekly, 4 to 6 weeks) were selected for the study, i.e. 7 breast cancer PDXs (BC11, BC52, BC143, BC146, BC173, BC227, and BC256), and 2 ovarian cancer PDXs (OV14 and OVM33). Three tumors of both control and treated groups were collected at the end of therapy, except for the BC146 for which 2 control tumors and 3 treated tumors were obtained. For each collected tumor, tumor volume was estimated according to the following formulae: V=a×b2/2, where a and b are the largest and the smallest perpendicular tumor diameters.
(§3) In a second time, a median TGR was defined for the control and treated groups of each PDX model. Finally, a ratio was calculated for each PDX model, as: median TGR of the treated group/median TGR of the corresponding control group. The inventors considered that a model was responder to DPT-C9h if the ratio was ≤0.5 (p<0.05), and resistant if the ratio was ≥0.8. In this, 3 models were considered as responder (BC52, BC173 and OV14), 4 as resistant (BC11, BC146, BC227, and BC256), and 2 remained undefined and were excluded from analyses (BC143 and OVM33) (Table 1).

BC173 breast cancer PDX = experiment: Tumor growth rate in BC173 patient-derived xenograft treated by DPT-C9h
Procedure: as §1, §2, §3

BC11 breast cancer PDX = experiment: Tumor growth rate in BC11 patient-derived xenograft treated by DPT-C9h
Procedure: as §1, §2, §3

OV14 ovarian cancer PDX = experiment: Tumor growth rate in OV14 patient-derived xenograft treated by DPT-C9h
Procedure: as §2, §3

BC146 breast cancer PDX = experiment: Tumor growth rate in BC146 patient-derived xenograft treated by DPT-C9h
Procedure: as §1, §2, §3

OVM33 ovarian cancer PDX = experiment: Tumor growth rate in OVM33 patient-derived xenograft treated by DPT-C9h
Procedure: as §2, §3

BC143 breast cancer PDX = experiment: Tumor growth rate in BC143 patient-derived xenograft treated by DPT-C9h
Procedure: as §1, §2, §3

BC256 breast cancer PDX = experiment: Tumor growth rate in BC256 patient-derived xenograft treated by DPT-C9h
Procedure: as §1, §2, §3

BC52 breast cancer PDX = experiment: Tumor growth rate in BC52 patient-derived xenograft treated by DPT-C9h
Procedure: as §1, §2, §3

[1] = TGR of treated group / TGR of control group
[2] = TGR=Vf/V1, 5 mg/kg/d IP, 5 days weekly, 4 to 6 weeks, end of therapy
[3] = responder if ratio ≤0.5 (p<0.05), resistant if ratio ≥0.8

Q: For “VKKKKIKREIKI-YVETLDGIFEQWAHSEDL (VKKKKIKREIKIYVETLDGIFEQWAHSEDL; chimeric peptide) [DPT-C9h]”, which “Ratio TGR” value (BC227 breast cancer PDX; [1]) is on record?
A: 1.38

Q: And the “Mean TGR DPT” value (BC227 breast cancer PDX; [2])?
A: 6.0

Q: What about the “conclusion (responder / resistant)” value (BC227 breast cancer PDX; class from ratio TGR) of the same substance?
A: − (−: resistant)

Q: What about the “model response to DPT-C9h (in words)” value (BC227 breast cancer PDX; [3]) of the same substance?
A: resistant

Q: What about the “Ratio TGR” value (BC173 breast cancer PDX; [1]) of the same substance?
A: 0.45

Q: What about the “Mean TGR DPT” value (BC173 breast cancer PDX; [2]) of the same substance?
A: 6.0

Q: What about the “conclusion (responder / resistant)” value (BC173 breast cancer PDX; class from ratio TGR) of the same substance?
A: + (+: responder)

Q: What about the “model response to DPT-C9h (in words)” value (BC173 breast cancer PDX; [3]) of the same substance?
A: responder

Q: What about the “Ratio TGR” value (BC11 breast cancer PDX; [1]) of the same substance?
A: 0.90

Q: And the “Mean TGR DPT” value (BC11 breast cancer PDX; [2])?
A: 24.3

Q: What about the “conclusion (responder / resistant)” value (BC11 breast cancer PDX; class from ratio TGR) of the same substance?
A: − (−: resistant)

Q: What about the “model response to DPT-C9h (in words)” value (BC11 breast cancer PDX; [3]) of the same substance?
A: resistant

Q: And the “Ratio TGR” value (OV14 ovarian cancer PDX; [1])?
A: 0.44

Q: And the “Mean TGR DPT” value (OV14 ovarian cancer PDX; [2])?
A: 10.7

Q: What about the “conclusion (responder / resistant)” value (OV14 ovarian cancer PDX; class from ratio TGR) of the same substance?
A: + (+: responder)

Q: And the “model response to DPT-C9h (in words)” value (OV14 ovarian cancer PDX; [3])?
A: responder

Q: And the “Ratio TGR” value (BC146 breast cancer PDX; [1])?
A: 0.96

Q: And the “Mean TGR DPT” value (BC146 breast cancer PDX; [2])?
A: 34.7

Q: And the “conclusion (responder / resistant)” value (BC146 breast cancer PDX; class from ratio TGR)?
A: − (−: resistant)

Q: What about the “model response to DPT-C9h (in words)” value (BC146 breast cancer PDX; [3]) of the same substance?
A: resistant

Q: What about the “Ratio TGR” value (OVM33 ovarian cancer PDX; [1]) of the same substance?
A: 0.65

Q: What about the “Mean TGR DPT” value (OVM33 ovarian cancer PDX; [2]) of the same substance?
A: 35.0

Q: And the “conclusion (responder / resistant)” value (OVM33 ovarian cancer PDX; class from ratio TGR)?
A: ND (ND: unidentified)

Q: And the “model response to DPT-C9h (in words)” value (OVM33 ovarian cancer PDX; [3])?
A: undefined

Q: And the “Ratio TGR” value (BC143 breast cancer PDX; [1])?
A: 0.68

Q: What about the “Mean TGR DPT” value (BC143 breast cancer PDX; [2]) of the same substance?
A: 27.7

Q: What about the “conclusion (responder / resistant)” value (BC143 breast cancer PDX; class from ratio TGR) of the same substance?
A: ND (ND: unidentified)

Q: What about the “model response to DPT-C9h (in words)” value (BC143 breast cancer PDX; [3]) of the same substance?
A: undefined

Q: What about the “Ratio TGR” value (BC256 breast cancer PDX; [1]) of the same substance?
A: 1.23

Q: What about the “Mean TGR DPT” value (BC256 breast cancer PDX; [2]) of the same substance?
A: 38.7

Q: And the “conclusion (responder / resistant)” value (BC256 breast cancer PDX; class from ratio TGR)?
A: − (−: resistant)

Q: And the “model response to DPT-C9h (in words)” value (BC256 breast cancer PDX; [3])?
A: resistant

Q: What about the “Ratio TGR” value (BC52 breast cancer PDX; [1]) of the same substance?
A: 0.38

Q: What about the “Mean TGR DPT” value (BC52 breast cancer PDX; [2]) of the same substance?
A: 15.3

Q: And the “conclusion (responder / resistant)” value (BC52 breast cancer PDX; class from ratio TGR)?
A: + (+: responder)

Q: What about the “model response to DPT-C9h (in words)” value (BC52 breast cancer PDX; [3]) of the same substance?
A: responder
